Source: patent US20240287172A1, “PROTEIN BINDERS TO IRHOM2 EPITOPES” (SCIRHOM GMBH, priority 2019, published 2024)

Tested on: PMA-induced release of endogenous HB-EGF from human U-937 cells
Experiment: ELISA-based HB-EGF release assay, PMA-induced, U-937 cells
Format: cell-based
Settings: PMA 25 ng/ml, 6 hours, murine (m) and chimeric (ch) antibodies and IgG at 3 μg/ml, Batimastat at 10 μM
Description: In brief, on day 1, Nunc black MaxiSorp® 96-well plates (Thermo Fisher Scientific, USA) were coated for 7 hours with 100 μl per well of rat anti-human HB-EGF capture antibody (provided as part of the DuoSet ELISA kit) at 2 μg/ml TBS at room temperature. Capture antibody solution was removed and MaxiSorp® plates were blocked with 300 μl per well of TBS, 1% BSA at room temperature for 3 hours. […]
Following another round of 4 times washing with 350 μl TBS-T (Carl Roth, Germany) per well on a 96-head plate washer (Tecan Group, Switzerland) and careful removal of all buffer traces after the fourth cycle, 100 μl AttoPhos substrate solution (Promega, USA) per well was added for incubation in the dark at room temperature for 1 hour. Using an infinite M1000 (Tecan Group, Switzerland) microplate reader, the fluorescence of each well was collected at an excitation wavelength of 435 nm and an emission wavelength of 555 nm. […]

SMILES: CNC(=O)[C@H](Cc1ccccc1)NC(=O)[C@H](CC(C)C)[C@H](CSc1cccs1)C(=O)NO [Batimastat]
- inhibition at 10 µM: 100%
